Consider 16 compounds from ChEMBL document CHEMBL4732195, “Promising hit compounds against resistant trichomoniasis: Synthesis and antiparasitic activity of 3-(ω-aminoalkoxy)-1-benzyl-5-nitroindazoles” (Bioorg Med Chem Lett, 2021).

The nature of data set [1]: Selectivity index, ratio of CC50 for African green monkey Vero cells to IC50 for Trichomonas vaginalis IR78 trophozoites. As to conditions: read-out: Ratio CC50/IC50. The format is toxicity.
Data set [2] is described as follows: Selectivity index, ratio of CC50 for African green monkey Vero cells to IC50 for Trichomonas vaginalis JH31A#4 trophozoites. The format is toxicity. As to conditions: read-out: Ratio CC50/IC50.
The test system of data set [3] is Trichomonas vaginalis. In words: Antimicrobial activity against Trichomonas vaginalis JH31A#4 trophozoites assessed as reduction in parasitic growth incubated for 24 hrs by resazurin dye based fluorescence assay. As to conditions: JH31A#4, 24 h. Type of data set: functional, organism-based.
In data set [4] the test system is Trichomonas vaginalis. In words: Antimicrobial activity against Trichomonas vaginalis IR78 trophozoites assessed as reduction in parasitic growth incubated for 24 hrs by resazurin dye based fluorescence assay. The format is functional, organism-based. As to conditions: IR78, 24 h.
Data set [5] can be described thus: Cytotoxicity against African green monkey Vero cells. Type of data set: cell-based. The conditions noted are these: chlorocebus sabaeus.

Each structure is given as a SMILES string.

As for `CN(C)CCCCCOc1nn(Cc2ccccc2)c2ccc([N+](=O)[O-])cc12`, the values for the selectivity ratio in data set [1] and in data set [2] were 0.94 and 8, respectively. Also, the IC50 (usually the concentration at which inhibition is half-maximal) turned out to be 6.5 µM in the data set on Trichomonas vaginalis [3] and 55.9 µM in the data set with Trichomonas vaginalis [4]. In addition, the CC50 (in general, the concentration giving 50% cytotoxicity) in data set [5] was 52.3 µM.
For the compound `CN(C)CCOc1nn(Cc2ccccc2)c2ccc([N+](=O)[O-])cc12`, the half-inhibitory concentration (IC50) in the data set on Trichomonas vaginalis [3] stood at 207 µM.
For the compound `Cc1ncc([N+](=O)[O-])n1CCO` [METRONIDAZOLE], the results for the selectivity ratio in data set [1] and in data set [2] were > 100 and > 176, respectively. The IC50 turned out to be 1.7 µM with Trichomonas vaginalis [3] and 3 µM with Trichomonas vaginalis [4]. The 50% cytotoxic concentration (CC50) in data set [5] is > 300 µM.
For `CNCCOc1nn(Cc2ccccc2)c2ccc([N+](=O)[O-])cc12` the same measures were 2.3, 10.5, 16.3 µM, 74.7 µM and 171 µM.
Consider `NCCOc1nn(Cc2ccccc2)c2ccc([N+](=O)[O-])cc12`, for which the selectivity ratio in data set [1] is > 21; in data set [2], > 28.6. Also, the IC50 with Trichomonas vaginalis [3] came to 10.5 µM; in the data set on Trichomonas vaginalis [4] it was 14.3 µM. Besides, in data set [5], the CC50 was > 300 µM.
`O=C1c2ccccc2C(=O)N1CCOc1nn(Cc2ccccc2)c2ccc([N+](=O)[O-])cc12`: the 50% inhibitory concentration (IC50) with Trichomonas vaginalis [3] came to 282 µM.
On the same count and under the same terms, then `O=[N+]([O-])c1ccc2c(c1)c(OCCBr)nn2Cc1ccccc1`, with > 300 µM; and `O=[N+]([O-])c1ccc2c(c1)c(OCCN1CCCCC1)nn2Cc1ccccc1`, with 265 µM; and `O=[N+]([O-])c1ccc2c(c1)c(OCCCCCBr)nn2Cc1ccccc1`, with > 300 µM.
For the compound `O=C1c2ccccc2C(=O)N1CCCOc1nn(Cc2ccccc2)c2ccc([N+](=O)[O-])cc12`, the IC50 in the data set on Trichomonas vaginalis [3] stood at 70.3 µM.
The same measure, in the same setting: then `O=[N+]([O-])c1ccc2c(c1)c(OCCCCCN1CCCCC1)nn2Cc1ccccc1`, with 69 µM; and `CN(C)CCCOc1nn(Cc2ccccc2)c2ccc([N+](=O)[O-])cc12`, with 63.7 µM.
With `CNCCCCCOc1nn(Cc2ccccc2)c2ccc([N+](=O)[O-])cc12`, the selectivity ratio in data set [1] is 48; in data set [2] it was 9.6. Besides, the IC50 in the data set on Trichomonas vaginalis [3] was 2.5 µM; in the data set with Trichomonas vaginalis [4], 0.5 µM. Further, in data set [5], the CC50 is 24 µM.
`O=[N+]([O-])c1ccc2c(c1)c(OCCCN1CCCCC1)nn2Cc1ccccc1`: in the data set with Trichomonas vaginalis [3], the IC50 came out at 104 µM.
`NCCCCCOc1nn(Cc2ccccc2)c2ccc([N+](=O)[O-])cc12`: the results for the selectivity ratio in data set [1] and in data set [2] were 1 and 13.7, respectively. The IC50 with Trichomonas vaginalis [3] was determined as 4.2 µM; in the data set on Trichomonas vaginalis [4], 59.1 µM. Also, the CC50 in data set [5] came to 57.7 µM.
The matching figures for `NCCCOc1nn(Cc2ccccc2)c2ccc([N+](=O)[O-])cc12`: 35.6, 2.4, 19.2 µM, 1.3 µM and 46.3 µM.
